# Laboratory results as given in publication PMC4437027, “New ambuic acid derivatives from the solid culture of Pestalotiopsis neglecta and their nitric oxide inhibitory activity” (Scientific Reports, 2015).
# Where two headings read alike, the source gives them in different places.
# Tests used:
# [1] = system: NO production in LPS-induced macrophages (RAW 264.7); assay: Inhibition of NO production in LPS-induced macrophages (RAW 264.7), nitrite accumulation; format: cell-based; settings: Mus musculus
# Source text: Mouse monocyte-macrophages RAW 264.7 (ATCC TIB-71) were purchased from the Chinese Academy of Science. RPMI 1640 medium, penicillin, streptomycin, and fetal bovine serum were purchased from Invitrogen (NewYork, USA). Lipopolysaccharide (LPS), DMSO, 3-(4,5-dimethylthiazol-2-yl)-2,5-diphenyl-2H-tetrazolium bromide (MTT), and hydrocortisone were obtained from Sigma Chemical Co. (Saint Louis, MO, U.S.A). RAW 264.7 cells were kept in RPMI 1640 medium supplemented with penicillin (100 U/mL), streptomycin (100 μg/mL), and 10% heat-inactivated fetal bovine serum at 37°C in a humidified incubator with 5% CO2 and 95% air. RAW 264.7 cells were passaged by trypsinization until they attained confluence and were used for assays during the exponential growth phase.
# Compounds 1, 4–8 were dissolved in DMSO and were further diluted with the culture medium to give a final DMSO concentration of 0.2% in the assay. This concentration of DMSO had no significant effect on the growth of the cell line tested. The procedure of NO inhibition assay was conducted as previously reported. The level of NO was assessed by measuring the accumulation of nitrite (NO2^−) using the same method as previously reported. Cytotoxicity was measured using the 3-(4,5-dimethylthiazol-2-yl)-2.5-diphenyltetrazolium bromide (MTT) assay method. The inhibition rate was calculated based on the following equation (1).
# [2] = system: Fusarium solani; parameters: method as in PMID 11261579; settings: cited from earlier work
# [3] = system: Fusarium cubense; parameters: method as in PMID 11261579; settings: cited from earlier work
# [4] = system: Helminthosporium sativum; parameters: method as in PMID 11261579; settings: cited from earlier work
# [5] = system: Diplodia natelensis; parameters: method as in PMID 11261579; settings: cited from earlier work
# [6] = system: Cephalosporium gramineum; parameters: method as in PMID 11261579; settings: cited from earlier work
# [7] = system: Pythium ultimum; parameters: method as in PMID 11261579; settings: cited from earlier work
# [8] = system: Staphyococcus aureus; parameters: method as in PMID 19117486; settings: Gram-positive bacterium Staphyococcus aureus; cited from earlier work
# [9] = system: biosynthesis of cyclic peptide quormones in Enterococcus faecalis; settings: Gram-positive bacteria Enterococcus faecalis; cited from earlier work
# [10] = RAW264.7, LPS-induced RAW 264.7 macrophages, read-out: NO inhibitory activity (IC50)
structure (smiles),measurement,setting,value
CC(=CCC12OC1C(O)C(CO)=C(C=CCCCC(C)O)C2=O)C(=O)O (stereo not drawn) [Compound 1],IC50,[1]; [10],> 100 µM
CCCCC/C=C/C1=C(COC(C)=O)[C@@H](O)[C@H]2O[C@@]2(C/C=C(\C)C(=O)O)[C@H]1O [Compound 4],IC50,[1]; [10],88.7 ± 6.74 µM
CCCCC/C=C/C1=C(CO)[C@@H](O)[C@H]2O[C@@]2(C/C=C(\C)C(=O)O)[C@H]1O [Compound 5],IC50,[1]; [10],> 100 µM
CCCCC/C=C/C1=C(COC(C)=O)[C@@H](O)[C@H]2O[C@@]2(C/C=C(\C)C(=O)O)C1=O [Compound 6],IC50,[1]; [10],11.2 ± 0.79 µM
"CCCCC/C=C/C1=C(CO)[C@H](O)[C@H]2O[C@@]2(C/C=C(\C)C(=O)O)C1=O [Compound 7, Ambuic acid]",IC50,[1]; [10],20.8 ± 1.41 µM
same,Antifungal effect,[2],moderate antifungal effects
same,Antifungal effect,[3],moderate antifungal effects
same,Antifungal effect,[4],moderate antifungal effects
same,Antifungal effect,[5],moderate antifungal effects
same,Antifungal effect,[6],moderate antifungal effects
same,Antifungal effect,[7],moderate antifungal effects
same,Antimicrobial effect,[8],antimicrobial
same,Inhibition of biosynthesis of cyclic peptide quormones,[9],inhibits the biosynthesis of cyclic peptide quormones
CCCCC/C=C/C1=C(CO)C(=O)C[C@](O)(C/C=C(\C)C(=O)O)[C@H]1O [Compound 8],IC50,[1]; [10],> 100 µM
"C[C@]12CCC(=O)C=C1CC[C@@H]1[C@@H]2[C@@H](O)C[C@@]2(C)[C@H]1CC[C@]2(O)C(=O)CO [Hydrocortisone, hydrocortisone, reference compound]",IC50,"[1]; RAW264.7, read-out: NO inhibitory activity (IC50)",53.7 ± 3.86 µM
